Results published in patent publication US20050170028A1, “Polysaccharide extract from Lycium barbarum as neuroprotective agent against beta-amyloid peptide neurotoxicity” (priority 2004, published 2005).

Legend:
Assay type in all cases: cell-based
caspase-3 = test: colorimetric caspase-3 activity assay in neurons exposed to Aβ-peptide
Procedure: Caspase-3 has long been regarded as an index for neuronal apoptosis. Therefore, the colorimetric caspase-3 activity assay was performed at the concentrations stated in FIG. 5, and neuronal apoptosis was determined by the colorimetric caspase-3 activity assay by measuring the absorbance (at 405 nm) of the yellow product (pNA) cleaved from the substrate. Results (***p<0.001 vs. the group treated with Aβ-peptide alone, by one-way ANOVA, Tukey test) are expressed as mean±SE from at least three independent experiments.
Caspase-3 is a general apoptosis marker. For apoptosis analysis, the colorimetric caspase-3 activity assay (at 405 nm) was performed.
It is also a well-known Western medicine for the treatment of manic-depressive bi-polar disorder. […] Neurons were pretreated with either LiCl (2 mM to 20 mM) or LBA (0.1 μg/ml to 500μ/ml) for 1 hour, and then exposed to Aβ25-35 peptide (25 μM) for 24 hours. Caspase-3 activity assay was used to determine the protective effects against Aβ-peptide toxicity. […] The unit of concentration of LiCl was converted from mM to μ/ml for the purpose of comparison with LBA. […] The toxicity decreased when the concentration of LiCi increased and it reached the lowest value (8.5%) when LiCi was used at 850 μ/ml (20 mM). Accordingly, LiCl could effectively reduce Aβ-peptide-stimulated caspase-3 activity in the range of 340 μg/ml to 850 μg/ml (i.e. 8 mM to 20 mM). LBA exerted protective effects for neurons against Aβ-peptide toxicity from very low concentration to high concentration (0.1 μg/ml to 500 μg/ml).
It has been reported that specific inhibitor of JNK, SP600125, also exerts protection for neurons against Aβ-peptide toxicity. We therefore compared the therapeutic window of SP600125 with LBA to elucidate their effectiveness in neuroprotection. Neurons were pretreated with either SP600125 (5 μM to 20 μM) or LBA (0.1 μg/ml to 500 μg/ml) for 1 hour, and then exposed to Aβ-peptide (25 μM) for 16 hours. Caspase-3 activity assay was done to investigate their protective effects against Aβ-peptide toxicity. Thus, after treatment, colorimetric caspase-3 activity assay was done to examine the level of apoptosis. Caspase-3 activity was expressed as % toxicity. Results are expressed as mean±SE from at least three independent experiments. % toxicity is calculated as: (s.a.of Aβ-/LBA-/SP-treated−s.a.control)÷(s.a.Aβ-treated−s.a.control). […] The unit of concentration of SP600125 was converted from […] to μg/ml for the purpose of comparison with LBA. […] The toxicity was 100% when using SP600125 at more than 20 μM (data not shown). SP600125 was effective from 1.1 μg/ml to 4.4 μ/ml; the range is very narrow when compared with that of LBA.
(§1) We separated different fractions by ion-exchange chromatography. Activity of caspase-3 served as an index for neuronal apoptosis. […] The biochemical analysis of caspase-3 activity was confirmed by morphological examination (FIG. 17). Upon exposure to Aβ peptide, neurites were broken and neurons were undergoing apoptosis.
For apoptosis analysis, the activity of caspase-3 serves as an index for neuronal apoptosis. […] A hundred microgram per […] exerted a nearly 100% neuroprotective effects (FIG. 20).

caspase-2 = test: colorimetric caspase-2 activity assay in neurons exposed to Aβ-peptide; settings: Aβ-peptide alone
Source text: Caspase-2 is an important index for neuronal apoptosis for β-amyloid peptide neurotoxicity. It has been reported that Aβ-peptide triggered activation of caspase-2. […] Therefore, we used the colorimetric method to determine caspase-2 activity. For caspase-2 activity, the trend was similar to that of caspase-3. Neurons exposed to Aβ-peptide triggered a 1.6-fold increase in caspase-2 activity.
Caspase-2 is an important index for neuronal apoptosis for β-amyloid peptide neurotoxicity. For caspase-2 activity, the trend was similar to that of caspase-3. We also used colorimetric method to determine caspase-2 activity.

[1] = tested on: neurons exposed to Aβ25-35 peptide; test: LDH release cytotoxicity assay in neurons exposed to Aβ-peptide; settings: Aβ25-35 peptide 25 μM alone, 24 h; control 24.7±0.45%; mean±SE
Procedure: To examine the effects of the aqueous extract LBA from Lycium barbarum on Aβ-peptide-induced neurotoxicity, neurons were pretreated with LBA (ranging from 0.1 μg/ml to 500 μg/ml) for 1 hour, followed by a 24-hour exposure to Aβ25-35 peptide (25 μM). For cytotoxicity analysis, the extracellular concentration of LDH was measured. […] For the control group, the release of LDH representing natural neuronal death was 24.7±0.45% of the total LDH release. Neurons exposed to Aβ-peptide increased the release of LDH to 38.0±0.92%.
The effects of the basic extract LBB from Lycium barbarum on Aβ-peptide-induced neurotoxicity were also investigated using the same approaches as for LBA. For cytotoxicity analysis, the extracellular concentration of LDH was measured.

[2] = tested on: neurons exposed to Aβ peptide; test: morphological changes of neurons exposed to Aβ-peptide; settings: LBA 100 μg/ml, LBB 500 μg/ml, heparin 1 μM; 1 h, then Aβ peptide 25 μM 24 h
Procedure: Since LBA and LBB contain both carbohydrate and amino acid, we use heparin to make a comparison of their protective effects. Neurons were pre-incubated with either heparin (1 μM), LBA (100 μg/ml) or LBB (500 μg/ml) for 1 hour, followed by a 24-hour exposure to Aβ peptide (25 μM). The morphology of neurons after different treatments is shown in FIG. 12, in which (A) Control, (B) Aβ-peptide alone, (C) LBA (100 μg/ml), (D) LBA (100 μg/ml)+Aβ, (E) LBB (500 μg/ml), (F) LBB (500 μg/ml)+Aβ, (G) Heparin (1 μM) and (H) Heparin (1 μM)+Aβ. […] In B, neurons treated with Aβ-peptide for 24 hours undergo apoptosis, as shown by the destruction of the fine neurite network. […] G and H were neurons pre-incubated with heparin, and then without and with Aβ-peptide exposure. […] Based on the morphology of neurons, the mode of neuroprotection of LBA and LBB is somewhat different to that of heparin.
as §1

For `[Cl-].[Li+]` [LiCl, Lithium Chloride], the “caspase-3 activity as percent toxicity” value (caspase-3; 850 μ/ml (20 mM), 1 h pretreatment, Aβ25-35 25 μM 24 h, lowest value) was 8.5% and the “toxicity to neurons (caspase-3 percent toxicity)” value (caspase-3; about 85 μg/ml (2 mM), Aβ25-35 25 μM 24 h) was “toxic to neurons”.

With `Oc1c2ccccc2c2c3c(cccc13)N=N2` [SP600125] the “caspase-3 activity as % toxicity” value (caspase-3; 1.1 μg/ml (5 μM), 1 h pretreatment, Aβ-peptide 25 μM 16 h) was 23.8%, the “caspase-3 activity as % toxicity” value (caspase-3; 4.4 μg/ml (20 μM), 1 h pretreatment, Aβ-peptide 25 μM 16 h) was 69.3% and the “caspase-3 activity as % toxicity” value (caspase-3; more than 20 μM, data not shown) was 100%.

“Aβ-peptide: β-amyloid peptide fragment 25-35 used at 25 μM as the neurotoxic challenge (GSNKGAIIGLM; Amyloid-beta protein 42; UniProt P05067 696-706, looked up, fragment)” was tested, and the caspase-3 activity (caspase-3; Aβ-peptide treated group, no extract) was 2.13 fold, the caspase-2 activity (caspase-2) was 1.6 fold and the “release of LDH, percentage of total LDH release” value [1] was 38.0±0.92%.

In the case of heparin, the “morphology of neurons after pre-incubation and Aβ peptide” value [2] is reported as “elongated neurons”.
